Reference: article PMC9130538, “Amino acids in transmembrane helix 1 confer major functional differences between human and mouse orthologs of the polyspecific membrane transporter OCT1” (The Journal of Biological Chemistry, 2022)

Tests used:
[1] = target: T1, human OCT1 (Homo sapiens, UniProt O15245); experiment: Cellular uptake by HEK293 cells overexpressing human OCT1 (wildtype); conditions: human versus mouse OCT1, stably transfected HEK293
T1 sequence (O15245 1-554): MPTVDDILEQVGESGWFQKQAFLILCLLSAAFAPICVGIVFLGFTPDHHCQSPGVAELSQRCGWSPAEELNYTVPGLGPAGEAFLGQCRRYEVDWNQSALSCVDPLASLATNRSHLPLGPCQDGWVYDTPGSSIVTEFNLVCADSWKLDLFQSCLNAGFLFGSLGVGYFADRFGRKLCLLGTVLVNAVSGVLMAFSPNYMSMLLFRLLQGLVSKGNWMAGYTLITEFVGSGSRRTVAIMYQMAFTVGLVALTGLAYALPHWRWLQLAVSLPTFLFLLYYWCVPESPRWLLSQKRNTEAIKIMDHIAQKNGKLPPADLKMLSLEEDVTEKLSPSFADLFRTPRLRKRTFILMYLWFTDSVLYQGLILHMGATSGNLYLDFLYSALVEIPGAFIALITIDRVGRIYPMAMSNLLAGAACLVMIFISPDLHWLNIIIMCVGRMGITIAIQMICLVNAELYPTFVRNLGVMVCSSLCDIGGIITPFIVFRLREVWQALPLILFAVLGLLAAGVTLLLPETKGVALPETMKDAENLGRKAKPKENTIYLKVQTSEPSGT
Experimental: Generation and characterization of these cell lines has been described in detail before ([34], [48], [49]). Cells were cultured in Dulbecco’s Modified Eagle’s Medium supplemented with 10% fetal bovine serum, 100 U/ml penicillin, and 100 μg/ml streptomycin at 37 °C and 5% CO2 and were passaged twice a week.
At 48 h prior to the experiment, 6 × 10^5 cells were seeded per well in 12-well plates. When using transiently transfected cells, 5 × 10^5 T-REx-293 cells (Life Technologies) were seeded per well in 12-well plates 72 h prior to the experiment, and they were transfected 24 h later as described previously. Twelve-well plates were precoated with poly-D-lysine.
(§1) Cellular uptake experiments were performed at 37 °C and pH 7.4 using HBSS supplemented with 10 mM Hepes (in the following referred to as HBSS+). Cells were washed with 1 ml prewarmed (37 °C) HBSS+, and the uptake was initiated by adding 400 μl of prewarmed HBSS+ containing the substrate. Uptake was allowed for exactly 2 min and afterward stopped by adding 2 ml ice-cold HBSS+. Cells were washed twice with 2 ml ice-cold HBSS+ and lysed with 80% acetonitrile supplemented with internal standard, 0.1 N NaOH/0.1% SDS, or radioimmunoprecipitation buffer for LC–MS/MS, liquid scintillation counting, or fluorescence spectroscopy detection, respectively. Intracellular substrate concentrations were measured as described in the following and were then normalized to the amount of total protein in the samples as measured using the bicinchoninic acid assay ([51]).
For LC–MS/MS quantification of intracellular substrate concentrations, the cell lysate was centrifuged at 16,000g for 15 min, and 350 μl of supernatant was evaporated to dryness under nitrogen flow at 40 °C. The sample was reconstituted with 200 μl 0.1% formic acid, and between 2 and 30 μl were injected into the LC–MS/MS system (Table S1).
An API4000 QTRAP tandem mass spectrometer with ESI interface (AB SCIEX) was used, coupled to a Shimadzu Nexera X2 UHPLC system with LC 30AD pumps and SiL 30AC autosampler (Shimadzu).
Intracellular concentrations of radioactively labeled substrates MPP^+ and TEA^+ were quantified using liquid scintillation counting. To this end, 400 μl cell lysate was transferred into a 20 ml scintillation vial, 9 ml Aquasafe 500 Plus liquid scintillator (both Zinsser Analytics) was added, and the sample was measured in the Scintillation Counter LS6500 (Beckman Coulter).
For both analyses, SPSS Statistics, version 28 (SPSS, Inc, IBM) was used.

[2] = target: T2, human OCT1 Cys36Tyr (Homo sapiens, UniProt O15245, C36Y); experiment: Uptake by HEK293 cells overexpressing Cys36Tyr human OCT1; type: cell-based; conditions: stably transfected HEK293, increasing concentrations, 2 min
T2 construct: expressed in transfected cells
Experimental: (§2) Human–mouse chimeric OCT1 constructs were generated using the overlap extension method ([50]) and have been characterized before ([34]). […] All constructs were validated by capillary sequencing of the complete open reading frame of OCT1 before transfection into HEK293 cells.
(§3) For transient transfection of OCT1 constructs into HEK293 cells for uptake experiments, 5 × 10^5 T-REx-293 cells (Life Technologies) were seeded per well in 12-well plates precoated with poly-D-lysine. […] At 48 h later, transfection efficacy was assessed microscopically by visualizing the GFP signal of the cotransfected GFP vector, and the cells were subsequently used for uptake experiments. […]
as §1, with “Cells were washed with 1 ml prewarmed (37 °C) HBSS+, and the uptake was initiated by adding 400 μl of prewarmed HBSS+ containing the substrate. Uptake was allowed for exactly 2 min and afterward stopped by adding 2 ml ice-cold HBSS+.” left out, “([51]). […]” for “([51]).”

[3] = target: mouse Oct1 Tyr36Cys (Mus musculus, UniProt O08966, Y36C); conditions: stably transfected HEK293, increasing concentrations, 2 min
Experimental: as §2, §3
as §1, with “Cells were washed with 1 ml prewarmed (37 °C) HBSS+, and the uptake was initiated by adding 400 μl of prewarmed HBSS+ containing the substrate. Uptake was allowed for exactly 2 min and afterward stopped by adding 2 ml ice-cold HBSS+.” left out, “([51]). […]” for “([51]).”

[4] = human, estimated based on clinical data, ref [9]; cited from earlier work

Chain of mouse Oct1 Tyr36Cys (O08966 whole entry Y36C): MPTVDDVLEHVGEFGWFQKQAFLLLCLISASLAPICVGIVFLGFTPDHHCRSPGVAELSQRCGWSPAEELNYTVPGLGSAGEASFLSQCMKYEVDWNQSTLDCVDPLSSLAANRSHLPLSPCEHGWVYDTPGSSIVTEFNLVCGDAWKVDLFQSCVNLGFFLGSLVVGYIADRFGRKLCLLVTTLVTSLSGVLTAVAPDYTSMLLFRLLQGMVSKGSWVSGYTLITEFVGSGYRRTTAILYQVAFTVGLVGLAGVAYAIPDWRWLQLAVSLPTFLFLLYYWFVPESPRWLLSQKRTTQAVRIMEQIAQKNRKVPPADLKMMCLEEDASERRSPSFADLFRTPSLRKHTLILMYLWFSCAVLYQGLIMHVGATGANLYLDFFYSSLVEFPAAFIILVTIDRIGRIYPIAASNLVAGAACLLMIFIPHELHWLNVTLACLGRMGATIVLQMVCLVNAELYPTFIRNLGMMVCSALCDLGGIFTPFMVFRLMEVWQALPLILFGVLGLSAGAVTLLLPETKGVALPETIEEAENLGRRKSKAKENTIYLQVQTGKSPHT

CC(C)(C)NCC(O)c1cc(O)cc(O)c1 (centres unmarked) [Terbutaline]
fold lower affinity (KM) of human OCT1 than mouse Oct1 (higher affinity of mouse Oct1) [1]: more than sixfold higher affinity of mouse Oct1 | effect of Cys36Tyr in human OCT1 on affinity (KM) [2]: did not affect | effect of Tyr36Cys in mouse OCT1 on affinity (KM) [3]: did not affect

CC(Cc1ccc(O)cc1)NCC(O)c1cc(O)cc(O)c1 (centres unmarked) [Fenoterol]
fold higher affinity (KM) of human than of mouse OCT1 [1]: 8.1 fold | clinically relevant (plasma) concentration [4]: 2.18 nM
